Results published in the supplement of paper PMC10307832.

How the values were obtained:
Experiment in all cases: relative viability (nuclei count vs DMSO), 5 days (fraction); higher = more cells survive
[1] = compound: CC1=CC(=NN1)NC2=CC(=NC(=N2)/C=C/C3=CC=CC=C3)N4CCN(CC4)C + CS(=O)(=O)CCNCc1ccc(-c2ccc3ncnc(Nc4ccc(OCc5cccc(F)c5)c(Cl)c4)c3c2)o1 [Lapatinib] (partner 2 µM)
Method in brief: (§1)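 A single step with final 0.05% Triton X-100, 1% formaldehyde and 1 ug/ml Hoechst fixed the cells and stained nuclei 5 days after treatment. Lung cancer cell lines in 1536-well plates had been treated by pin tool the day after seeding with one drug alone or a fixed anchor-drug dose plus five library-drug doses (not always all listed) in √10 steps, and nuclei were counted on 4× images. Relative viability is the ratio of nuclei in treated wells to nuclei in vehicle wells, taken as the median of duplicate plates.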

[2] = compound: CC1=CC(=NN1)NC2=CC(=NC(=N2)/C=C/C3=CC=CC=C3)N4CCN(CC4)C + NC(=O)Nc1cc(-c2cccc(F)c2)sc1C(=O)N[C@H]1CCCNC1 [AZD7762] (partner 0.2 µM)
Method in brief: as §1

[3] = compound: CC1=CC(=NN1)NC2=CC(=NC(=N2)/C=C/C3=CC=CC=C3)N4CCN(CC4)C + C[C@@H](Oc1cc(-c2cnn(C3CCNCC3)c2)cnc1N)c1c(Cl)ccc(F)c1Cl [Crizotinib] (partner 1 µM)
Method in brief: as §1

Bortezomib + Crizotinib = compound: CC(C)C[C@H](NC(=O)[C@H](Cc1ccccc1)NC(=O)c1cnccn1)B(O)O [Bortezomib] + C[C@@H](Oc1cc(-c2cnn(C3CCNCC3)c2)cnc1N)c1c(Cl)ccc(F)c1Cl [Crizotinib] (partner 1 µM)
Method in brief: as §1

Cell Line | relative viability ([1]; first compound 0.08 µM) | relative viability ([1]; first compound 0.253 µM) | relative viability ([1]; first compound 0.8 µM) | relative viability ([1]; first compound 2.53 µM) | relative viability ([1]; first compound 8 µM) | relative viability ([2]; first compound 0.08 µM) | relative viability ([2]; first compound 0.253 µM) | relative viability ([2]; first compound 0.8 µM) | relative viability ([2]; first compound 2.53 µM) | relative viability ([2]; first compound 8 µM) | relative viability ([3]; first compound 0.08 µM) | relative viability ([3]; first compound 0.253 µM) | relative viability ([3]; first compound 0.8 µM) | relative viability ([3]; first compound 2.53 µM) | relative viability ([3]; first compound 8 µM) | relative viability (Bortezomib + Crizotinib; first compound 0.0002 µM) | relative viability (Bortezomib + Crizotinib; first compound 0.000632 µM) | relative viability (Bortezomib + Crizotinib; first compound 0.002 µM) | relative viability (Bortezomib + Crizotinib; first compound 0.006325 µM) | relative viability (Bortezomib + Crizotinib; first compound 0.02 µM)
201T | 1.02 | 1.07 | 1.04 | 0.946 | 0.915 | 0.667 | 0.526 | 0.628 | 0.538 | 0.53 | 1.01 | 1.07 | 0.965 | 0.982 | 0.786 | 0.999 | 1.07 | 1.02 | 1.02 | 0.32
A549 | 0.924 | 0.954 | 0.772 | 0.102 | 0.0367 | – | – | – | – | – | 0.873 | 0.537 | 0.257 | 0.112 | 0.0338 | 0.767 | 0.631 | 0.789 | 0.0392 | 0.0432
A-427 | 1.22 | 1.05 | 0.957 | 0.542 | 0.513 | 0.83 | 0.683 | 0.713 | 0.238 | 0.163 | 0.878 | 0.878 | 0.937 | 0.399 | 0.0861 | 0.867 | 0.859 | 0.866 | 0.521 | 0.0943
ABC-1 | 0.957 | 1.15 | 1.23 | 1.13 | 0.453 | – | 1.16 | 0.795 | 0.907 | 0.175 | 0.866 | 1.25 | 0.562 | 0.182 | 0.169 | 1.1 | 0.693 | 0.22 | 0.178 | 0.195
BEN | 0.75 | 0.668 | 0.742 | 0.326 | 0.229 | 0.734 | 0.726 | 0.667 | 0.508 | 0.283 | 0.881 | 1.09 | 0.804 | 0.675 | 0.167 | 0.78 | 0.821 | 0.58 | 0.447 | 0.134
CAL-12T | 0.654 | 0.778 | 0.663 | 0.324 | 0.141 | 0.626 | 0.655 | 0.647 | 0.319 | 0.152 | 0.825 | 0.54 | 0.291 | 0.11 | 0.0934 | 0.888 | 0.551 | 0.61 | 0.241 | 0.1
COR-L23 | 0.98 | 1.51 | 1.1 | 0.22 | 0.0755 | – | – | – | – | – | 0.696 | 0.676 | 0.41 | 0.159 | 0.0747 | 0.669 | 0.581 | 0.595 | 0.0447 | 0.0472
COR-L 105 | 0.335 | 0.341 | 0.338 | 0.23 | 0.223 | – | – | – | – | – | 0.897 | 0.731 | 0.445 | 0.222 | 0.191 | 0.673 | 0.741 | 0.577 | 0.206 | 0.215
Calu-6 | 0.93 | 0.966 | 0.793 | 0.195 | 0.137 | – | – | – | – | – | 0.735 | 0.622 | 0.345 | 0.197 | 0.101 | 0.712 | 0.777 | 0.81 | 0.105 | 0.0708
ChaGo-K-1 | – | – | – | – | – | 0.823 | 0.935 | 0.824 | 0.439 | 0.241 | 1.1 | 1.07 | 1.13 | 0.484 | 0.267 | – | – | 1.11 | 0.304 | 0.236
EBC-1 | 0.214 | 0.223 | 0.254 | 0.209 | 0.153 | – | – | – | – | – | 0.188 | 0.185 | 0.213 | 0.137 | 0.108 | 0.172 | 0.172 | 0.162 | 0.106 | 0.0978
EKVX | 0.191 | 0.216 | 0.226 | 0.136 | 0.0912 | 0.649 | 0.667 | 0.753 | 0.413 | 0.122 | 0.991 | 1.12 | 0.978 | 0.552 | 0.147 | 0.942 | 0.894 | 0.822 | 0.268 | 0.106
EMC-BAC-2 | 0.905 | 0.923 | 0.811 | 0.689 | 0.136 | 1.11 | 1.22 | 1.1 | 0.654 | 0.354 | 0.788 | 0.721 | 0.566 | 0.296 | 0.0972 | 0.71 | 0.692 | 0.766 | 0.199 | 0.113
EPLC-272H | 0.893 | 0.99 | 0.868 | 0.462 | 0.157 | 0.17 | 0.209 | 0.196 | 0.116 | 0.0909 | 0.884 | 1.06 | 0.711 | 0.452 | 0.174 | – | – | 0.972 | 0.584 | 0.07
H3255 | 0.244 | 0.211 | 0.478 | 0.203 | 0.123 | 0.866 | 0.935 | 0.955 | 0.782 | 0.374 | 0.731 | 0.936 | 0.943 | 0.74 | 0.192 | 0.734 | 0.914 | 0.452 | 0.195 | 0.208
HARA | 0.776 | 0.874 | 0.611 | 0.163 | 0.158 | 0.386 | 0.351 | 0.412 | 0.193 | 0.154 | 1.05 | 1.01 | 0.932 | 0.138 | 0.1 | 0.961 | 0.966 | 0.789 | 0.0536 | 0.067
HCC-15 | 0.867 | 0.856 | 0.835 | 0.319 | 0.167 | 1.1 | 1.46 | 1.25 | 0.875 | 0.34 | 0.864 | 0.823 | 0.783 | 0.298 | 0.0811 | 0.784 | 0.825 | 0.904 | 0.46 | 0.0815
